Data on one substance can be found in paper PMC13065040 (PLOS One, 2026).

Assay [1] addresses T1, MMP-2 (Homo sapiens, UniProt P08253).
T1 construct: ProSpec Bio; Antibodies-Online; Elabscience; Abcam ENZ-769; ABIN7400042; PKSH033450
T1 sequence (P08253 110-660): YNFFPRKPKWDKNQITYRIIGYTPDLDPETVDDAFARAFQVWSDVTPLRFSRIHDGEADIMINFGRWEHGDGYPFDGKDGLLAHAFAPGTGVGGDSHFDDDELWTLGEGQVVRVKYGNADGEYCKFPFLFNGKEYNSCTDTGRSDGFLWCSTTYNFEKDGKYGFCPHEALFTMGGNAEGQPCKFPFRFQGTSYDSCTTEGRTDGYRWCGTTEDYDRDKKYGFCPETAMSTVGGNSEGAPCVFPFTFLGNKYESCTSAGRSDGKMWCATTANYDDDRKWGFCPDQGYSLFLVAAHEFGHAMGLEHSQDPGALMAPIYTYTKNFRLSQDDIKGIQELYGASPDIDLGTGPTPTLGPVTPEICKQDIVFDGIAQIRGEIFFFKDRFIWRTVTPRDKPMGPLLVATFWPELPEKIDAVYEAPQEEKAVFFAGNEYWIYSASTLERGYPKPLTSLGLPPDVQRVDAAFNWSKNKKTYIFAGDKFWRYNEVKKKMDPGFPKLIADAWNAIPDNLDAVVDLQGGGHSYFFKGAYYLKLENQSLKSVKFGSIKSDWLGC
The assay can be described thus: Differential scanning fluorimetry (DSF). In kind it is binding. Also noted: Dtm (ΔTm): unit not given here. The settings on record: for Dtm (ΔTm), average / Tm of MMP-2 with peptide, average: average of replicates; for Dtm (ΔTm) / Tm of MMP-2 with peptide: CTX experiment. How it is done:
The melting temperatures (Tm) of recombinant MMP-2 and its complexes with peptides were ascertained using BioRad CFX384 Touch real-time PCR (Hercules, CA, USA). The experiments were performed as previously described. The unfolding of the protein was detected using the fluorescent SYPRO-orange dye (Invitrogen, Carlsbad, CA, USA). MMP-2 and prospective ligand peptides were dissolved in 7.1 pH phosphate buffered saline (154 mM NaCl, 5.6 mM Na2PO4, 1.1 mM KH2PO4), and the reaction mixture was made to a final concentration of 1 µM of protein, either 30 µM ([…]) of peptide, and 1000x dilution of the SYPRO-Orange dye stock from the manufacturer. Excitation and emission filters of the dye were set at 450 − 490 nm and 560 − 580 nm, respectively. The temperature for the reaction was held at 25 °C for 5 min, and then a gradient of 25 °C to 95 °C was applied at a rate of 0.3 °C/min, and the fluorescence was recorded. To determine Tm of the protein, the first derivatives of melting curves were plotted using GraphPad Prism software, version 10.0.3.
On the technique in general: In DSF a fluorescence change marks the thermal transition of the protein.

The target in assay [2] is T1, MMP-2. In words: Surface plasmon resonance (SPR), immobilized MMP-2. Conditions: NTA chip, peptides 500 µM to 3.90 µM, pH 7.4. The assay is classed as binding. The procedure:
Surface plasmon resonance (SPR) reagents, plates, and the NTA chip were purchased from GE Healthcare Life Sciences, now Cytiva (Marlborough, MA, USA). Measurements were performed using the Biacore 8000 SPR System (Marlborough, MA. USA). The running buffer used for protein immobilization and peptide binding consisted of 20 mM Tris, 150 mM NaCl, […] and 0.0005% Tween-20, adjusted to pH 7.4. MMP-2 and NRP-1 were immobilized onto the NTA chip at 15 nM and 25 nM concentration, respectively. Peptides were injected over the immobilized proteins using two-fold serial dilutions from 500 µM to 3.90 µM. Three experiments with four replicates of each were performed. The SPR response curves generated from the Biacore Insight Evaluation Software were fitted to a steady-state affinity model to obtain an equilibrium dissociation constant (KD) for each peptide — protein interaction.
(In general: Surface plasmon resonance follows binding to a sensor surface in real time, without labels.)

Assay [3] deals with MMP-2. The settings on record: cited from earlier work. An excerpt: Ctx (Fig 2) is a 36-residue polypeptide from the scorpion Leiurus quinquestriatus. Ctx contains 8 cysteinyl residues, forming 4 disulfide bridges which help to stabilize its three-dimensional structure. […] However, conflicting data on the effects of Ctx on the glioma-specific chloride channel makes it difficu ... || Given the absence of change in melting temperature, the present result cannot confirm the notion that Ctx binds to the three fibronectin regions in the collagen binding domain [33].

Take Chlorotoxin [Ctx]: the “Dtm (ΔTm), average” value at MMP-2 [1] (peptide 30 (µM per method)) is on record as 2.368e-15; on MMP-2 [1] (peptide 50 (µM per method)), -0.2. Also, the “Tm of MMP-2 with peptide, average” value was determined as 47.7 at MMP-2 [1] (peptide 30 (µM per method)) and 47.5 at MMP-2 [1] (peptide 50 (µM per method)). The “Dtm (ΔTm)” value on MMP-2 [1] (peptide 30, replicate 1) is listed as -0.2; on MMP-2 [1] (peptide 30, replicate 2), 0.1; at MMP-2 [1] (peptide 30, replicate 3), 0.1; on MMP-2 [1] (peptide 50, replicate 1) it was -0.2; at MMP-2 [1] (peptide 50, replicate 2), -0.2; at MMP-2 [1] (peptide 50, replicate 3), -0.2. For the same substance, the Tm of MMP-2 with peptide at MMP-2 [1] (peptide 30, replicate 1) was determined as 47.5 °C; on MMP-2 [1] (peptide 30, replicate 2), 47.8 °C; on MMP-2 [1] (peptide 30, replicate 3), 47.8 °C; on MMP-2 [1] (peptide 50, replicate 1), 47.5 °C; at MMP-2 [1] (peptide 50, replicate 2), 47.5 °C; on MMP-2 [1] (peptide 50, replicate 3) it was 47.5 °C. The “binding to MMP-2 by SPR” value at MMP-2 [2] is reported as “did not bind”. Moreover, the “effect on the enzymatic activity of MMP-2” value with MMP-2 [3] was “no statistically significant effect”. Also, the “inhibition of MMP-2 enzymatic activity” value in the assay with MMP-2 [3] is on record as “inhibits MMP-2 enzymatic activity”.
